Experimental data taken from patent publication US20080207522A1, “Antimicrobial Peptides” (priority 2004, published 2008).
Where “and” joins values, the source holds several entries; their conditions need not be identical. Equal values may be shown once.

Assays:
[1] = test system: Pseudomonas aeruginosa strain H1001; assay: Assay for the cleaved (free, soluble) peptides from cellulose support, luminescence killing assay; type: cell-based; parameters: key: 1: Peptides showing stronger killing than Bac2A at a 4 to 8-fold higher dilution; Peptides showing stronger killing compared to that of Bac2A at a 4-fold higher dilution; 3: Peptides similar to Bac2A; 4: Peptides similar to Bac2A at the highest concentration but demonstrating weaker killing at a 2-fold dilution; 5: Peptides giving very weak or no killing at a 2-fold dilution; 6: Peptides with weak killing activity at the highest concentration; conditions: free (cleaved) peptides, killing relative to Bac2A
Method: Assay for the cleaved peptides from cellulose support. The peptides were cleaved from the dried membrane in an ammonia atmosphere overnight, resulting in free peptides with an amidated C-terminus. The free peptides contained two β-alanines at the C-terminus, in addition to being amidated due to the linker between the cellulose membrane and the peptide sequence. The peptide spots were punched out and transferred in a 96-well microtiter plate. Serial dilutions were carried out from the membrane spots. Four rows were filled with four controls including two with Bac2A and two with of an unrelated peptide. The other eight rows were used for serial dilution steps of the peptide variants. An overnight culture of Pseudomonas aeruginosa strain H1001 was diluted 1:500 using either LB media or 100 mM Tris buffer pH 7.3, 20 mM glucose and was added to the wells (100 μl/well) containing the peptide spots. In all other wells 50 μl were added. The microtiter plate was incubated for 30 min at 37° C. to release the peptides from the membrane. Subsequently, a dilution series were performed and the plate was incubated at 37° C. The luminescence produced by the ATP dependent luciferase system were detected in a time dependent manner using a Tecan Spectra Fluor plus.
(§1) Strains. For the killing assay a mini-Tn5-lux mutant in Pseudomonas aeruginosa H103 was used. The strain is called H1001 and contains a fliC::luxCDABE transcriptional fusion resulting in constitutive expression of luciferase. The bacterial strains used for the antimicrobial activity assays included Escherichia coli UB1005 (F-, nalA37, metB1), a wild-type Salmonella enterica ssp. Typhimurium (S. Typhimurium), wild-type Pseudomonas aeruginosa PAO1 strain H103, Enterococcus faecalis ATCC29212, Staphylococcus aureus ATCC25923, and a clinical isolate of Staphylococcus epidermidis obtained from Dr. D. Speert (Department of Medicine, University of British Columbia). Antifungal activity was tested using a lab isolate of Candida albicans obtained from Dr. B. Dill (Department of Microbiology and Immunology, University of British Columbia).
Peptide synthesis on cellulose is a very effective and inexpensive way to investigate many different peptide variants for one particular activity. However, one of the problems of this technique is the low peptide density synthesized on the membrane, about 280 nmol per cm2. An average peptide spot used for the experiments presented is about 0.3 cm2. Therefore, an assay had to be developed that was sensitive enough to show activity with this amount of peptides. P. aeruginosa H1001 has a reporter system (e.g., a luciferase gene cassette) incorporated into the bacterial chromosome in the fliC gene (involved in flagellar biosynthesis) that is constitutively expressed. It will thus produce light if ATP is present. When this strain is killed, e.g. by peptides, the amount of light produced will decrease due to a decrease in ATP levels in the killed cells. This action can thus be monitored by detecting luminescence in a microtiter plate luminescence reader over time. The volume and amount of cells per well were optimized for this assay. After screening, the killing action was monitored with small amounts of the parent peptide Bac2A (2 μg/ml of free peptide).
Forty-nine scrambled peptides (Bac002-Bac050) were synthesized on the cellulose support and then cleaved by ammonia gas resulting in free peptides with an amidated C-terminus including the linker. The peptide spots were transferred to a 96-well microtiter plate and incubated for 30 min to dissociate the peptides from the cellulose. After serial dilution and addition of strain H1001, luminescence was recorded in a time dependent manner (FIG. 1). All 50 scrambled peptides were compared to Bac2A ([…]-NH2; SEQ ID NO: 1) by this assay (see Table 2). […] Further since all scrambled peptides had some activity, a sequence-specific interaction of the peptides with a receptor or target could be excluded.

[2] = test system: Pseudomonas aeruginosa strain H1001 fliC::luxCDABE; assay: Luminescence-based assay for the non-cleaved (bound) peptides on cellulose membranes; type: cell-based; conditions: for Luminescence at the given time in minutes: 0 / Luminescence at the given time in minutes: 20 / Luminescence at the given time in minutes: 40 / Luminescence at the given time in minutes: 60 / Luminescence at the given time in minutes: 80 / Luminescence at the given time in minutes: 100 / Luminescence at the given time in minutes: 120 / Luminescence at the given time in minutes: 180 / Luminescence at the given time in minutes: 240: cellulose-bound peptide; for Luminescence at the given time in minutes: 0: 0 min; for Luminescence at the given time in minutes: 20: 20 min; for Luminescence at the given time in minutes: 40: 40 min; for Luminescence at the given time in minutes: 60: 60 min; for Luminescence at the given time in minutes: 80: 80 min; for Luminescence at the given time in minutes: 100: 100 min; for Luminescence at the given time in minutes: 120: 120 min; for Luminescence at the given time in minutes: 180: 180 min; for Luminescence at the given time in minutes: 240: 240 min; for Activity Class bound: uncleaved cellulose-bound peptides; for ability to inhibit light production (luminescence): cellulose bound peptide spots, three hours at 37° C., FIG. 2
Method: Luminescence-based MIC assay for the non-cleaved peptides on cellulose membranes. The peptide spots were punched out and transferred to a 96 well microtiter plate with a clear polystyrene bottom and opaque white polypropylene sides (PerkinElmer, Boston, USA). The spots were washed two times with 100% ethanol for 5 min and afterwards equilibrated five times with 100 mM Tris buffer pH 7.3 for 5 min. An overnight culture of Pseudomonas aeruginosa strain H1001 fliC::luxCDABE was diluted 1:50 in new MH medium and incubated at 37° C. to an OD600 of 0.35. This bacterial culture was diluted 1:25 into 10 mM Tris-HCl buffer, pH 7.3 containing 20 mM glucose. Fifty μl of this culture was added to all wells of the microtiter plate and incubated at 37° C. The luminescence of the strain produced by the ATP-dependent luciferase system was detected in a time dependent manner using a Tecan Spectra Fluor plus (Tecan, Austria). At the end of the experiment, the membranes were cleaned by washing the spots two times with 100% ethanol for five minutes. After removing the ethanol the membrane was air-dried.
as §1
The same set of peptides, as well as the reversed sequence of Bac2A-R ([…]; SEQ ID NO: 2166), were synthesized on cellulose and left uncleaved. The production of light was initially compared in wells containing spots of Bac2A, Bac2A-R (with the reversed sequence of Bac2A), the unrelated negative-control peptide, or, as additional controls, only cellulose, or only bacteria (FIG. 2).
As a control, the negative control (unrelated) peptide Bac429 and parent peptide Bac2A (=Bac001) were used in several different wells of the microtiter plate. Luminescence (relative light units; RLU) was measured at 14 different time points, 9 of which are shown. To permit comparison of the data with the free peptide data set, the result for each peptide was classified into six different groups, like the data set with the free peptides (Table 2). […] For the soluble peptides the following classes were established: […]

Sequence | Activity Class Soluble [1] | Luminescence at the given time in minutes: 0 [2] | Luminescence at the given time in minutes: 20 [2] | Luminescence at the given time in minutes: 40 [2] | Luminescence at the given time in minutes: 60 [2] | Luminescence at the given time in minutes: 80 [2] | Luminescence at the given time in minutes: 100 [2] | Luminescence at the given time in minutes: 120 [2] | Luminescence at the given time in minutes: 180 [2] | Luminescence at the given time in minutes: 240 [2] [RLU] | Activity Class bound [2] | ability to inhibit light production (luminescence) [2]
VILARRRVRIAV [Bac017] | 5 | 4219 RLU | 7259 RLU | 5041 RLU | 3136 RLU | 1907 RLU | 1047 RLU | 578 RLU | 321 RLU | 214 | 3 (Peptides similar to Bac2A resulting in lux values of less than 500 after 240 min.) | 
ILVIVRRRARAV [Bac042] | 3 | 5171 RLU | 6703 RLU | 4453 RLU | 2128 RLU | 746 RLU | 244 RLU | 86 RLU | 49 RLU | 52 | 3 (Peptides similar to Bac2A resulting in lux values of less than 500 after 240 min.) | 
RVLIARVVRAIR [Bac027] |  | 4437 RLU | 6695 RLU | 4991 RLU | 4421 RLU | 4011 RLU | 3545 RLU | 3100 RLU | 3182 RLU | 3513 | 6 (Peptides having residual luminescence (lux) values greater than 3000 after 240 min.) | 
RAVRIVVIRALR [Bac2A-R] |  |  |  |  |  |  |  |  |  |  |  | only a slightly decreased ability to inhibit light production
RRRAIVRVVAIL [Bac023] |  | 3958 RLU | 7783 RLU | 5656 RLU | 3751 RLU | 1827 RLU | 761 RLU | 329 RLU | 123 RLU | 79 | 3 (Peptides similar to Bac2A resulting in lux values of less than 500 after 240 min.) | 
IVVRRRRAALVI [Bac030] |  | 4618 RLU | 7325 RLU | 5921 RLU | 5326 RLU | 4981 RLU | 4418 RLU | 4087 RLU | 3861 RLU | 3679 | 6 (Peptides having residual luminescence (lux) values greater than 3000 after 240 min.) | 
IILAVRAVRRVR [Bac029] |  | 4538 RLU | 6664 RLU | 5062 RLU | 3963 RLU | 2745 RLU | 1799 RLU | 1279 RLU | 1012 RLU | 942 | 4 (Peptides reducing luminescence (lux) values to between 500 to 1499 after 240 min.) | 
GATPEDLNQKLS [Bac429, negative control (unrelated) peptide, reference compound] |  | 4295 RLU and 4593 RLU and 4337 RLU and 4761 RLU and 4537 RLU | 7478 RLU and 7525 RLU and 7118 RLU and 7536 RLU and 7275 RLU | 6031 RLU and 6900 RLU and 6593 RLU and 6318 RLU and 6459 RLU | 5770 RLU and 6732 RLU and 6716 RLU and 6102 RLU and 6149 RLU | 5449 RLU and 6701 RLU and 6273 RLU and 5996 RLU and 6092 RLU | 4779 RLU and 6812 RLU and 6453 RLU and 6086 RLU and 5799 RLU | 4438 RLU and 6872 RLU and 6210 RLU and 5899 RLU and 5611 RLU | 3939 RLU and 7674 RLU and 6656 RLU and 6384 RLU and 5656 RLU |  |  | no activity in decreasing luminescence
